According to ChEMBL document CHEMBL4665719, “Development of SKI-349, a dual-targeted inhibitor of sphingosine kinase and microtubule polymerization” (Bioorg Med Chem Lett, 2020):
pIC50: −log10 of the molar value. Active and inactive are the calls of the source. The calls are words filed in the database; no cut-off is given here.

Experiments:
Sphingosine kinase 1 [1] = molecular target: T1, Sphingosine kinase 1 (Homo sapiens, UniProt Q9NYA1); assay: Binding affinity to SphK1 in HEK293 cells assessed as induction of thermal stabilization at 1 uM and 51 to 63.2 degreeC by CETSA-based Western blot analysis; assay type: cell-based
T1 sequence (Q9NYA1 whole entry): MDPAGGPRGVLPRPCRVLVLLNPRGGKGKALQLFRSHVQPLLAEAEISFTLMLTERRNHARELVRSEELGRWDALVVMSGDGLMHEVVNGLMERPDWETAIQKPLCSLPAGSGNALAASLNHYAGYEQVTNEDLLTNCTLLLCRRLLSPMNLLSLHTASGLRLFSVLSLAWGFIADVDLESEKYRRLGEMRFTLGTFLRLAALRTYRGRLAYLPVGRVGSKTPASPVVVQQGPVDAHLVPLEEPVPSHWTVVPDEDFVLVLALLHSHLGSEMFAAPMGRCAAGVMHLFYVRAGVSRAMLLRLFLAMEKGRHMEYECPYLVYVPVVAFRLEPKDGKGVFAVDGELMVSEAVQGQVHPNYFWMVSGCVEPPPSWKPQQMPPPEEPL

Sphingosine kinase 1 [2] = molecular target: T1, Sphingosine kinase 1; assay: Binding affinity to SphK1 in HEK293 cells assessed as direct target engagement incubated for 24 hrs followed by thermal denaturation at 61 degreeC by ITDRF-CETSA assay; assay type: cell-based
[3] = Toxicity in sub-lethal irradiated C57BL/6J mouse xenografted with […] MLL-AF9 cells assessed as HCT level at 5 mg/kg measured after 2 weeks (reference value: 45 +/- 1.4 %); assay type: organism-based; conditions: in vivo, 336 h
[4] = Effect on hematopoiesis in sub-lethal irradiated C57BL/6J mouse xenografted with […] MLL-AF9 cells assessed as CD45.1+/CD34 cells in spleen at 5 mg/kg measured after 6 weeks by flow cytometry analysis (reference value: 90 %); assay type: ADME, organism-based; conditions: in vivo, 1008 h
[5] = Toxicity in sub-lethal irradiated C57BL/6J mouse xenografted with […] MLL-AF9 cells assessed as platelet level at 1 mg/kg measured after 2 weeks (reference value: 687 +/- 53 10^3/ml); assay type: organism-based; conditions: in vivo, 336 h
[6] = Effect on hematopoiesis in sub-lethal irradiated C57BL/6J mouse xenografted with […] MLL-AF9 cells assessed as CD45.1+/CD34 cells in bone marrow at 2.5 mg/kg measured after 6 weeks by flow cytometry analysis (reference value: 93 %); assay type: ADME, organism-based; conditions: in vivo, 1008 h
[7] = molecular target: T2, Sphingosine kinase 1/2 (Homo sapiens) (UniProt Q9NRA0+Q9NYA1); assay: Inhibition of SPHK1/SPHK2 in human HL-60 cells assessed as C18:0 ceramide level assessed per 10^6 cells at 500 nM after 24 hrs by LC-ESI/MS analysis (reference value: 1.6 +/- 0.2 pmol); assay type: cell-based
T2 sequence (Q9NRA0 whole entry, looked up): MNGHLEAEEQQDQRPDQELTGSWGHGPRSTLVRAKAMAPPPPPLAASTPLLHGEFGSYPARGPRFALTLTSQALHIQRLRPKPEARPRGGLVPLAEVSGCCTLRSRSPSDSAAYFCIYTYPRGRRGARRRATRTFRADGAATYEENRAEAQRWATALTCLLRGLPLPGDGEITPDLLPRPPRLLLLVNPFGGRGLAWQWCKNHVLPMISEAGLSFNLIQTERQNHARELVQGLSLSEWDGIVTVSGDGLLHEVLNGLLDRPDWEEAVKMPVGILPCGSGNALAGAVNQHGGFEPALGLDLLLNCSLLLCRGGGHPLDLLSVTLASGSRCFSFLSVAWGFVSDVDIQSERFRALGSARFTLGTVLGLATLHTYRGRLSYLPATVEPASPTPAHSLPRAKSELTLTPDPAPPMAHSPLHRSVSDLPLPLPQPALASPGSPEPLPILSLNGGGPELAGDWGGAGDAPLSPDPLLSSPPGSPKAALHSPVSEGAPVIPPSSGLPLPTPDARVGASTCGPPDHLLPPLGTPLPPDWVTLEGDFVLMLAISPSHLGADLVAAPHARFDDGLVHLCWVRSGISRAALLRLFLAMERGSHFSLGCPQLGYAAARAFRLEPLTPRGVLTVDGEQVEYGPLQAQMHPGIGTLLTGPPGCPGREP
T2 sequence (Q9NYA1 whole entry, looked up): as the sequence (Q9NYA1 whole entry) above

[8] = molecular target: T2, Sphingosine kinase 1/2 (Homo sapiens); assay: Inhibition of SPHK1/SPHK2 in human HL-60 cells assessed as sphingosine-1-phosphate level assessed per 10^6 cells at 500 nM after 24 hrs by LC-ESI/MS analysis (reference value: 3.1 +/- 0.3 pmol); assay type: cell-based
Tubulin (Homo sapiens) = Tubulin (Homo sapiens) (UniProt P68371+Q9H4B7+P0DPH7+P68366+Q13509+Q71U36+P04350+Q3ZCM7+P07437+P68363+Q9BQE3+Q6PEY2+Q13885+Q9BVA1+Q9BUF5); assay: Inhibition of tubulin polymerization in human MOLM-13 cells assessed as disruption of microtubule network at 500 nM after 18 hrs by FITC-staining based flow cytometry analysis; assay type: cell-based
[9] = Toxicity in sub-lethal irradiated C57BL/6J mouse xenografted with […] MLL-AF9 cells assessed as WBC level at 1 mg/kg measured after 2 weeks (reference value: 6.5 +/- 0.4 10^3/ml); assay type: organism-based; conditions: in vivo, 336 h
[10] = Toxicity in sub-lethal irradiated C57BL/6J mouse xenografted with […] MLL-AF9 cells assessed as RBC level at 5 mg/kg measured after 2 weeks (reference value: 9.8 +/- 0.3 10^6/ml); assay type: organism-based; conditions: in vivo, 336 h
[11] = molecular target: Tyrosine-protein kinase JAK1 (Homo sapiens) (UniProt P23458); assay: Inhibition of wild-type human partial length JAK1 JH2 pseudokinase domain (R537 to D855 residues) expressed in mammalian expression system assessed as residual activity at 1 uM by Kinomescan method relative to control
Sequence of Tyrosine-protein kinase JAK1 (Homo sapiens) (P23458 whole entry, the tested form may be a part): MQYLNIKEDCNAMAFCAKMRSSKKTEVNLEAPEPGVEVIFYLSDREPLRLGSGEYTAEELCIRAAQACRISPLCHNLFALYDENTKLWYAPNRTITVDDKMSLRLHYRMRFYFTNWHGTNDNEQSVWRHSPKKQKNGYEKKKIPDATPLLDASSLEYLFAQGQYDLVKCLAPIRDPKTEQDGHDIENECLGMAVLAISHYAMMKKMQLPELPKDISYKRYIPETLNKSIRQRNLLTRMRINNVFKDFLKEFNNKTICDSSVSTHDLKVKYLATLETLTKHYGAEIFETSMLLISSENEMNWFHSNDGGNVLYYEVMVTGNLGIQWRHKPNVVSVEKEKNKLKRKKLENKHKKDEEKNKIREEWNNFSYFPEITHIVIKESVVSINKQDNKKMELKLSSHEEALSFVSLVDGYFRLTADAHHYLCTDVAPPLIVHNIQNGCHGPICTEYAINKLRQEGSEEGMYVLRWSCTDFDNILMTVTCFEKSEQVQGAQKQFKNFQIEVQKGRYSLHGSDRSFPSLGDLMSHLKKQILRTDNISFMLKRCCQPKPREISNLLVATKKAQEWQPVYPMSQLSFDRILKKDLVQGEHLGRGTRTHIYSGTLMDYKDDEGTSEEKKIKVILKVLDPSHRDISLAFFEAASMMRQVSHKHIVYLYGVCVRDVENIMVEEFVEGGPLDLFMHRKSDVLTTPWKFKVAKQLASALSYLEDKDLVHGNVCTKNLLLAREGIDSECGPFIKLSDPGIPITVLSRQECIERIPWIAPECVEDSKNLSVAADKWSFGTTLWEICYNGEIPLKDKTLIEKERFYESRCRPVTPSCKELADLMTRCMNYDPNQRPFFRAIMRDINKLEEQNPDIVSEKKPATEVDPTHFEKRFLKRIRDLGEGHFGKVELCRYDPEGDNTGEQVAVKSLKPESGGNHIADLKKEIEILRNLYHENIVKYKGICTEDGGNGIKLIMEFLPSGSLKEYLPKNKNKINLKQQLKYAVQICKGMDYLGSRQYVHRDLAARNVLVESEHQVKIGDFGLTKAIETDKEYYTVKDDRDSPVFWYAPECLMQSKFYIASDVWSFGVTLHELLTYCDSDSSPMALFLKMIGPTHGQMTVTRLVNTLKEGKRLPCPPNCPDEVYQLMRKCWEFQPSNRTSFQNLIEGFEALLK

[12] = molecular target: Cyclin-dependent kinase 1 (Homo sapiens) (UniProt P06493); assay: Activation of CDK1 in human HL60/VCR cells assessed as induction of Bcl2 phosphorylation at Ser70 residue at 300 nM after 24 hrs by Western blot analysis; assay type: cell-based; conditions: filed as activator
Sequence of Cyclin-dependent kinase 1 (Homo sapiens) (P06493 whole entry, looked up): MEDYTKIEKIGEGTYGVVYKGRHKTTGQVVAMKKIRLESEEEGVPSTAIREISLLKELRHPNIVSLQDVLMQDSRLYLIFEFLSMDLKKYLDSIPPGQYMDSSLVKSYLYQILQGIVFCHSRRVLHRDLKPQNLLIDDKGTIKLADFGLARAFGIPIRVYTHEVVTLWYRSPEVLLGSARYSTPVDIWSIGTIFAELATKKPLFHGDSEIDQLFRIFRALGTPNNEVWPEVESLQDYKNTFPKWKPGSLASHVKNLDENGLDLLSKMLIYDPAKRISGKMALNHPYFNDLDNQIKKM

[13] = molecular target: T2, Sphingosine kinase 1/2 (Homo sapiens); assay: Inhibition of SPHK1/SPHK2 in human HL-60 cells assessed as induction of apoptosis by measuring spindle assembly checkpoint arrest at 1 uM after 16 hrs by Western blot analysis; assay type: cell-based
[14] = molecular target: Cyclin-dependent kinase 1 (Homo sapiens) (UniProt P06493); assay: Activation of CDK1 in human HL60/VCR cells assessed as induction of Bcl2 phosphorylation at Ser70 residue at 300 nM after 24 hrs in presence of Ro-3306 by Western blot analysis; assay type: cell-based
[15] = molecular target: Cyclin-dependent kinase 1 (Homo sapiens) (UniProt P06493); assay: Activation of CDK1 in human HL60/VCR cells assessed as activation of caspase 7 at 300 nM after 24 hrs in presence of Ro-3306 by Western blot analysis; assay type: cell-based
[16] = Toxicity in sub-lethal irradiated C57BL/6J mouse xenografted with […] MLL-AF9 cells assessed as Hb level at 5 mg/kg measured after 2 weeks (reference value: 13.4 +/- 0.5 g/dl); assay type: organism-based; conditions: in vivo, 336 h
[17] = molecular target: Cyclin-dependent kinase 1 (Homo sapiens) (UniProt P06493); assay: Activation of CDK1 in human HL-60 cells assessed as activation of caspase 7 at 300 nM after 24 hrs by Western blot analysis; assay type: cell-based; conditions: filed as activator
[18] = Effect on hematopoiesis in sub-lethal irradiated C57BL/6J mouse xenografted with […] MLL-AF9 cells assessed as CD45.1+/CD34 cells in spleen at 2.5 mg/kg measured after 6 weeks by flow cytometry analysis (reference value: 90 %); assay type: ADME, organism-based; conditions: in vivo, 1008 h
[19] = Toxicity in sub-lethal irradiated C57BL/6J mouse xenografted with […] MLL-AF9 cells assessed as RBC level at 1 mg/kg measured after 2 weeks (reference value: 9.8 +/- 0.3 10^6/ml); assay type: organism-based; conditions: in vivo, 336 h

SMILES: COc1ccc(Nc2nc(N)c(C(=O)c3ccc(OC)c(OC)c3)s2)cc1
- Activity (Sphingosine kinase 1 [1]): Active
- pIC50 (Sphingosine kinase 1 [2]): 7.22
- Activity [3]: 41%
- Activity [4]: 7%
- Activity [5]: 1193 10^3/ml
- Activity [6]: 7%
- Activity [7]: 4.7 pmol
- Activity [8]: 2.3 pmol
- inhibition (Tubulin (Homo sapiens)): Active
- Activity [9]: 8.7 10^3/ml
- Activity [10]: 9 10^6/ml
- Activity [11]: 5.4%
- Activity [12]: Active
- Activity [13]: Active
- Activity [14]: inactive
- Activity [15]: inactive
- Activity [16]: 12 g/dL
- Activity [17]: Active
- Activity [18]: 6%
- Activity [19]: 9.2 10^6/ml
